# Assay results taken from paper PMC7522027 (Disease Models & Mechanisms, 2020).
# Key:
# ACV-R1B (ALK4) = target: T1, ACV-R1B (ALK4) (Homo sapiens, UniProt P36896); test: radiometric protein kinase assay, ALK4; assay type: biochemical; details: [ATP] = 1 μM; Fig. 7C
# T1 construct: purchased ProQinase GmbH (Freiburg, Germany); host or cells: bacteria (so in the source)
# T1 sequence (P36896 24-505): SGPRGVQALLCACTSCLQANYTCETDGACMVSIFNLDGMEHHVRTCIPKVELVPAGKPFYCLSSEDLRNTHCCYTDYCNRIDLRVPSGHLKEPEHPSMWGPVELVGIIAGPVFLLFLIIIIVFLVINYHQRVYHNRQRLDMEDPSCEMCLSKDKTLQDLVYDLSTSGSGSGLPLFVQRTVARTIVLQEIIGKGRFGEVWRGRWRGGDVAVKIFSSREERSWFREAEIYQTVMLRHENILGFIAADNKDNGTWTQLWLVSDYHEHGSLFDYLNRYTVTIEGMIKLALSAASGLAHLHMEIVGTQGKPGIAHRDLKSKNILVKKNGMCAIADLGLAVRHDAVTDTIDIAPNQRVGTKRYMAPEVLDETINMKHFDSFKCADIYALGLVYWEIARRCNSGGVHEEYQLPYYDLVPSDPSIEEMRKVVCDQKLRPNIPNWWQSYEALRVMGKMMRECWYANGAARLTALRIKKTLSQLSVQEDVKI
# [1] = system: MEK and anaplastic lymphoma kinase (ALK) versus ALK serine/threonine kinases; test: kinase panel: sensitivity of control kinases relative to ALK serine/threonine kinases; assay type: biochemical, human; details: ratio of IC50 values
# Method: IC50 values were calculated using Prism 5.04 for Windows (GraphPad, San Diego, CA, USA; www.graphpad.com). The mathematical model used was ‘Sigmoidal response (variable slope)’ with parameters ‘top’ fixed at 100% and ‘bottom’ at 0%. The fitting method used was a least-squares fit.
# caALK3 = target: T2, caALK3 (Homo sapiens, UniProt P36894, Q233D); test: caALK3-induced SMAD1/5 phosphorylation in HEK 293T cells; assay type: cell-based; details: cercosporamide 1-10 µM, LDN193189 200 nM
# T2 construct: expressed in transfected cells; host or cells: HEK 293T
# Text: HepG2 or HEK 293T cells were lysed in Laemmli sample buffer. Proteins were separated by sodium dodecyl sulfate polyacrylamide gel electrophoresis (SDS-PAGE) and transferred onto […] polyvinylidene difluoride (PVDF) membrane (IPVH00010, Merck Millipore). Membranes were blocked using 5% non-fat dry milk in Tris-buffered saline with 0.1% Tween 20 (655204, Merck Millipore) and probed with the respective primary and secondary antibodies. The signal was detected using Clarity™ Western ECL Substrate (1705060, Bio-Rad) and ChemiDoc Imaging System (17001402, Bio-Rad). The antibodies used for immunoblotting were raised against the following proteins: phospho-SMAD1/5/8 ([Persson et al., 1998]; 1:1000), SMAD1 (Cell Signaling Technology, #6944; 1:1000), GAPDH (Merck Millipore, #G8795; 1:5000) and hemagglutinin (HA; Roche, #12CA5; 1:1000).
# For experiments with the caALK type I receptor constructs, HEK 293T cells were seeded in 24-well plates at ∼90% confluency and transfected with the DNA expression constructs in the presence of PEI. Thirty hours after transfection, the cells were added to serum-starved medium and treated with compounds for 16 h (overnight). Subsequently, the cells were washed with PBS and lysed in Laemmli sample buffer. […]
# T2 sequence (P36894 24-532 Q233D): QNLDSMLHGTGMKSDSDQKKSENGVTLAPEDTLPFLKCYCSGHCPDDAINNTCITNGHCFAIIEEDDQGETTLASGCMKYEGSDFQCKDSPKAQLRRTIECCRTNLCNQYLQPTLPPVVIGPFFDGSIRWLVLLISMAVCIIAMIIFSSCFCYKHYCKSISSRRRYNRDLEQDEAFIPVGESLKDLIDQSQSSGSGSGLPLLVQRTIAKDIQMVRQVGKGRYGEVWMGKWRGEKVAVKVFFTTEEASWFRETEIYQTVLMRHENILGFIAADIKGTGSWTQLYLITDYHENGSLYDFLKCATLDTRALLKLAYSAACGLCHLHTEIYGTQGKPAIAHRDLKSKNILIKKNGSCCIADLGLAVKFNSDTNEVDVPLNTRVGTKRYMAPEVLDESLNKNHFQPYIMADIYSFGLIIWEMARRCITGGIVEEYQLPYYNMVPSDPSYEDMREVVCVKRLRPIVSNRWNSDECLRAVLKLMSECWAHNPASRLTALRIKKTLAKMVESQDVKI
smiles,measurement,setting,value
"CC(=O)C1=C(O)C=C2Oc3c(C(N)=O)c(O)cc(O)c3[C@]2(C)C1=O [cercosporamide, Cercosporamide]",IC50,ACV-R1B (ALK4),150 nM
same,MEK and tyrosine kinase ALK less sensitive than the ALK serine/threonine kinases,[1],7- to 67 fold
same,effect on caALK3-induced SMAD1/5 phosphorylation,caALK3,inhibited SMAD1/5 phosphorylation
